According to PubChem BioAssay (NCI):
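At the GI50, growth is halved. TGI marks complete inhibition of growth.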

Experiments:
Assay in all cases: NCI anticancer screen, dose series, 384-well format
A549 NSCLC = system: A549 NSCLC
MOLT-4 leukemia = system: MOLT-4 leukemia
HOP-62 NSCLC = system: HOP-62 NSCLC
SF-295 CNS = system: SF-295 CNS
OVCAR-5 ovarian = system: OVCAR-5 ovarian
UACC-62 melanoma = system: UACC-62 melanoma
BT-549 breast = system: BT-549 breast
SK-OV-3 ovarian = system: SK-OV-3 ovarian
U251 glioblastoma = system: U251 glioblastoma
OVCAR-4 ovarian = system: OVCAR-4 ovarian
NCI-H226 lung = system: NCI-H226 lung
SR leukemia = system: SR leukemia
HCT-15 colon = system: HCT-15 colon
PC-3 prostate = system: PC-3 prostate
IGROV1 ovarian = system: IGROV1 ovarian
SW-620 colon = system: SW-620 colon
T-47D breast = system: T-47D breast
UO-31 renal = system: UO-31 renal
TK-10 renal = system: TK-10 renal
OVCAR-8 ovarian = system: OVCAR-8 ovarian
MALME-3M melanoma = system: MALME-3M melanoma
NCI/ADR-RES ovarian = system: NCI/ADR-RES ovarian
CAKI-1 renal = system: CAKI-1 renal
K-562 leukemia = system: K-562 leukemia
HL-60(TB) leukemia = system: HL-60(TB) leukemia
MDA-MB-468 breast = system: MDA-MB-468 breast
UACC-257 melanoma = system: UACC-257 melanoma
SF-539 CNS = system: SF-539 CNS
NCI-H322M lung = system: NCI-H322M lung
NCI-H522 lung = system: NCI-H522 lung
NCI-H460 NSCLC = system: NCI-H460 NSCLC
HCC-2998 colon = system: HCC-2998 colon
CCRF-CEM leukemia = system: CCRF-CEM leukemia
COLO 205 colon = system: COLO 205 colon
RXF 393 renal = system: RXF 393 renal
RPMI-8226 leukemia = system: RPMI-8226 leukemia
A498 renal = system: A498 renal
HT29 colon = system: HT29 colon
KM12 colon = system: KM12 colon
EKVX NSCLC = system: EKVX NSCLC
ACHN renal = system: ACHN renal
M14 melanoma = system: M14 melanoma
LOX IMVI melanoma = system: LOX IMVI melanoma
SN12C renal = system: SN12C renal
HS 578T breast = system: HS 578T breast
MDA-MB-435 melanoma = system: MDA-MB-435 melanoma
SK-MEL-5 melanoma = system: SK-MEL-5 melanoma
MCF7 breast = system: MCF7 breast
MDA-MB-231 breast = system: MDA-MB-231 breast
SNB-19 CNS = system: SNB-19 CNS
SNB-75 CNS = system: SNB-75 CNS
DU-145 prostate = system: DU-145 prostate
OVCAR-3 ovarian = system: OVCAR-3 ovarian
SF-268 CNS = system: SF-268 CNS
SK-MEL-28 melanoma = system: SK-MEL-28 melanoma
NCI-H23 lung = system: NCI-H23 lung
HOP-92 NSCLC = system: HOP-92 NSCLC
786-0 renal = system: 786-0 renal

## CN1CCN(c2nc(C3=C(c4c[nH]c5ccccc45)C(=O)NC3=O)c3ccccc3n2)CC1
A549 NSCLC
  GI50: 16.9 µM
  TGI: 36.6 µM
MOLT-4 leukemia
  GI50: 13.1 µM
  TGI: 25.8 µM
HOP-62 NSCLC
  GI50: 13.7 µM
  TGI: 26.7 µM
SF-295 CNS
  GI50: 18.6 µM
  TGI: 32.7 µM
OVCAR-5 ovarian
  GI50: 20.8 µM
  TGI: 44 µM
UACC-62 melanoma
  GI50: 15.4 µM
  TGI: 28.8 µM
BT-549 breast
  GI50: 13.5 µM
  TGI: 26.3 µM
SK-OV-3 ovarian
  GI50: 18.1 µM
  TGI: 38.8 µM
U251 glioblastoma
  GI50: 16.1 µM
  TGI: 29.9 µM
OVCAR-4 ovarian
  GI50: 21.8 µM
  TGI: 44.6 µM
NCI-H226 lung
  GI50: 13.4 µM
  TGI: 30.3 µM
SR leukemia
  GI50: 7.06 µM
  TGI: 19.7 µM
HCT-15 colon
  GI50: 12.1 µM
  TGI: 28.4 µM
PC-3 prostate
  GI50: 17.5 µM
  TGI: 34.3 µM
IGROV1 ovarian
  GI50: 18.1 µM
  TGI: 34.5 µM
SW-620 colon
  GI50: 18.5 µM
  TGI: 32.6 µM
T-47D breast
  GI50: 20.2 µM
  TGI: 35.7 µM
UO-31 renal
  GI50: 17.9 µM
  TGI: 44.9 µM
TK-10 renal
  GI50: 17.8 µM
  TGI: 44.2 µM
OVCAR-8 ovarian
  GI50: 13.8 µM
  TGI: 27.6 µM
MALME-3M melanoma
  GI50: 4.68 µM
  TGI: 16.2 µM
NCI/ADR-RES ovarian
  GI50: 19.5 µM
  TGI: 41.3 µM
CAKI-1 renal
  GI50: 16.3 µM
  TGI: 32.3 µM
K-562 leukemia
  GI50: 12.2 µM
  TGI: 24.7 µM
HL-60(TB) leukemia
  GI50: 15 µM
  TGI: 28.2 µM
MDA-MB-468 breast
  GI50: 18.3 µM
  TGI: 32.5 µM
UACC-257 melanoma
  GI50: 13.6 µM
  TGI: 26.5 µM
SF-539 CNS
  GI50: 15 µM
  TGI: 28.3 µM
NCI-H322M lung
  GI50: 16.3 µM
  TGI: 31.2 µM
NCI-H522 lung
  GI50: 15.4 µM
  TGI: 28.7 µM
NCI-H460 NSCLC
  GI50: 18.6 µM
  TGI: 32.6 µM
HCC-2998 colon
  GI50: 17.7 µM
  TGI: 31.6 µM
CCRF-CEM leukemia
  GI50: 13.1 µM
  TGI: 25.9 µM
COLO 205 colon
  GI50: 6.82 µM
  TGI: 19.6 µM
RXF 393 renal
  GI50: 15.1 µM
  TGI: 28.4 µM
RPMI-8226 leukemia
  GI50: 10.1 µM
  TGI: 21.7 µM
A498 renal
  GI50: 15.3 µM
  TGI: 28.6 µM
HT29 colon
  GI50: 13.9 µM
  TGI: 27.4 µM
KM12 colon
  GI50: 3.7 µM
  TGI: 15.4 µM
EKVX NSCLC
  GI50: 17.8 µM
  TGI: 33.2 µM
ACHN renal
  GI50: 15.5 µM
  TGI: 30 µM
M14 melanoma
  GI50: 13.9 µM
  TGI: 26.8 µM
LOX IMVI melanoma
  GI50: 16.1 µM
  TGI: 29.7 µM
SN12C renal
  GI50: 13.2 µM
  TGI: 26.3 µM
HS 578T breast
  GI50: 16.8 µM
  TGI: 30.5 µM
MDA-MB-435 melanoma
  GI50: 16.6 µM
  TGI: 30.2 µM
SK-MEL-5 melanoma
  GI50: 5.58 µM
  TGI: 18.7 µM
MCF7 breast
  GI50: 10.9 µM
  TGI: 23 µM
MDA-MB-231 breast
  GI50: 15.4 µM
  TGI: 30.7 µM
SNB-19 CNS
  GI50: 19.8 µM
  TGI: 39.5 µM
SNB-75 CNS
  GI50: 19.9 µM
  TGI: 37.3 µM
DU-145 prostate
  GI50: 16.3 µM
  TGI: 32.6 µM
OVCAR-3 ovarian
  GI50: 15.8 µM
  TGI: 30.7 µM
SF-268 CNS
  GI50: 18.1 µM
  TGI: 32.3 µM
SK-MEL-28 melanoma
  GI50: 16.4 µM
  TGI: 30 µM
NCI-H23 lung
  GI50: 16.1 µM
  TGI: 29.8 µM
HOP-92 NSCLC
  GI50: 15.8 µM
  TGI: 29.4 µM
786-0 renal
  GI50: 13.8 µM
  TGI: 26.9 µM
